Assay [1] deals with Streptococcus mutans ATCC 35668 biofilms. In words: Immediate dispersal of stationary S. mutans biofilms, crystal violet, 1 minute treatment. The settings on record: 1.2% chlorhexidine, room temperature. The format is cell-based. The method, then:
FIG. 11 depicts the immediate dispersal of Streptococcus mutans ATCC 35668 2-day old stationary biofilms treated with 100 μg/mL chitosan-arginine (43 kDa, 25% functionalized, 88% DDA, 2.28 PDI), water, or 1.2% Chlorhexidine. The biofilms were rinsed, stained with crystal violet and treated for 1 minute and rinsed.
The S. mutans biofilms were grown in 12-well untreated tissue culture plates containing BHI media supplemented with 1% sucrose for approximately 3 days. The biofilms were rinsed with water three times and stained with crystal violet for 2 minutes then rinsed three times (FIG. 11, ‘Before’). Water, 100 μg/ml chitosan-arginine or 1.2% chlorhexidine were used to treat each biofilm for 1 minute at room temperature (FIG. 11, ‘During’).

The subject of assay [2] is Streptococcus mutans (ATCC 35668). Put plainly: Synergy of chitosan-arginine with chlorhexidine, remaining CFU after 1 hour. Type of assay: cell-based. The method, then: Solutions of both agents were prepared at 4× their intended final concentration. Two concentrations for each agent are used for each assay and the drugs were combined in 4 ways: […] Controls of each drug alone as well as positive (S. mutans only) and negative (media only) controls were prepared. […] After incubation, the plates were centrifuged for 10 minutes at 4000 RPM on a microtiter plate rotor, before being resuspended, sonicated, diluted and plated on BHI for remaining CPU.

On to `[H]/N=C(\N/C(=N/[H])NCCCCCCNC(=N)NC(=N)Nc1ccc(Cl)cc1)Nc1ccc(Cl)cc1` [Chlorhexidine], for which the “biofilm after 1 minute treatment and rinsing” value in assay [1] is reported as “removed from the surface”. The “Log CFU reduction beyond most active agent” value in assay [2] (Chlorhexidine 0.00625% alone (C/A 0 μg/ml)) came to 1.9 Log CFU; in assay [2] (Chlorhexidine 0.0125% alone (C/A 0 μg/ml)), 1.8 Log CFU.

These data come from US20180049965A1, “ORAL CARE METHODS AND COMPOSITIONS UTILIZING CHITOSAN-DERIVATIVE COMPOUNDS” (Synedgen Inc., priority 2009, published 2018).
